# Laboratory results: article PMC10793101 (Acta Pharmaceutica Sinica. B, 2023)
# pEC50: −log10 of the molar value.
# Key:
# [1] = tested on: APAP-induced liver injury (AILI); conditions: cited from earlier work
# TFEB [2] = molecular target: T1, TFEB (Homo sapiens, UniProt P19484); assay: GFP-TFEB nuclear translocation validation by confocal microscopy in AML12 cells; assay type: cell-based, mouse; conditions: stably expressing pEGFP-N1-TFEB AML12 cells, 24 h, vs control
# T1 sequence (P19484 1-476): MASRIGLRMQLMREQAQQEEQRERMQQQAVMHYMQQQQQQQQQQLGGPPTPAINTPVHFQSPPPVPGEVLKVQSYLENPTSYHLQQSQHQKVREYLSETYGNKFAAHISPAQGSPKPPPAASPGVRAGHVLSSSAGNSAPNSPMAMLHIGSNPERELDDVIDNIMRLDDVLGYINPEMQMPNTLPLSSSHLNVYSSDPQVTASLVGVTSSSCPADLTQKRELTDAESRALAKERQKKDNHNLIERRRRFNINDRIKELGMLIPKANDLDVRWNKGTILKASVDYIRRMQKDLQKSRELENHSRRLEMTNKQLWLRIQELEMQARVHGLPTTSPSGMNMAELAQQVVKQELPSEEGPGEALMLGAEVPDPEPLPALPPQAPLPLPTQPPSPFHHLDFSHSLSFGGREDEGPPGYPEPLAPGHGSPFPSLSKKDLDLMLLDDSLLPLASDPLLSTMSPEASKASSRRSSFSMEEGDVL
# [3] = tested on: APAP-induced liver injury (AILI); assay: Protection against APAP overdose-induced liver injury in mice; assay type: in vivo, mouse
# TFEB [4] = assay: TFEB promoter-driven luciferase reporter assay in AML12 cells; assay type: cell-based, mouse; conditions: AML12 cells transfected with pGL3-TFEB-Luc, 24 h treatment
# TFEB [5] = molecular target: T1, TFEB; assay: GFP-TFEB nuclear translocation assay in qHTS format; assay type: cell-based, mouse
# TFEB [6] = assay: qPCR of TFEB target genes in AML12 cells; assay type: cell-based, mouse; conditions: qPCR normalized to 18s
# [7] = salinomycin 5 mg/kg i.p. with APAP 500 mg/kg i.p., 6 and 24 h
compound,measurement,setting,value
"CC(=O)Nc1ccc(O)cc1 [APAP, Acetaminophen]",levels of hepatic GSH,"mouse livers; APAP 0.5, 2 and 6 h, recovered at 24 h",significantly decreased
same,serum alanine aminotransferase (ALT) levels,"mouse livers; APAP 500 mg/kg i.p., 6 or 24 h, vs saline",significantly increased
same,mRNA levels of TFEB targeted genes in liver,"mouse livers; APAP 500 mg/kg, 6 h, vs saline",significantly lower
same,levels of hepatic CYP2E1,mouse livers; APAP-treated WT mouse livers vs saline-treated WT,~2 fold
C[C@@H]1O[C@@H](OC[C@H]2O[C@@H](Oc3cc(O)c4c(c3)O[C@H](c3ccc(O)cc3)CC4=O)[C@H](O)[C@@H](O)[C@@H]2O)[C@H](O)[C@H](O)[C@H]1O [Narirutin],hepatic APAP-adducts and AILI,"[1]; mice, by activating TFEB via enhanced calcineurin activity",decrease
CC[C@@H](C(=O)[C@@H](C)[C@@H](O)[C@H](C)[C@@H]1O[C@@H]([C@@H](CC)C(=O)O)CC[C@@H]1C)[C@H]1O[C@]2(C=C[C@@H](O)[C@]3(CC[C@@](C)([C@H]4CC[C@](O)(CC)[C@H](C)O4)O3)O2)[C@H](C)C[C@@H]1C [Salinomycin],nuclear translocation of TFEB,TFEB [2],significantly increased
same,hepatic levels of APAP-protein adducts,[3]; APAP-treated mice with or without salinomycin,similar
same,serum levels of APAP-adducts,[3]; APAP-treated mice with salinomycin,markedly decreased
same,hepatic protein levels of CYP2E1,"[3]; immunoblotting, salinomycin 5 mg/kg i.p.",did not change
same,hepatic TFEB levels,"[3]; immunoblotting, salinomycin with APAP vs APAP",partially recovered
same,levels of phosphorylated JNK,"[3]; liver, co-treatment of salinomycin after APAP overdose",reduced
same,areas of centrilobular necrosis (H&E and TUNEL staining),[3]; salinomycin 5 mg/kg i.p. with APAP 500 mg/kg i.p.,almost completely abolished
same,serum ALT levels,[3]; [7],markedly decreased
same,serum AST levels,[3]; [7],markedly decreased
same,TFEB promoter driven luciferase activity,TFEB [4],significantly increased
same,pEC50,TFEB [5],5.58
same,"mRNA levels of TFEB target genes (Tfeb, Sqstm1, Ppargc1a, Lamp1, Vatp6v1d, Vatp6v1h, Pparα)",TFEB [6],increased
CCN(CC)CCNC(=O)c1c(C)[nH]c(/C=C2\C(=O)Nc3ccc(F)cc32)c1C [Sunitinib],effect on AILI at high dose,[1]; high dose,increases AILI
same,effect on AILI at low dose,[1]; low dose,mild hepatoprotective effect
"CCC(=O)N1CCN(c2ccc(-n3c(=O)ccc4cnc5ccc(-c6cnc7ccccc7c6)cc5c43)cc2C(F)(F)F)CC1 [Torin1, Torin 1]",nuclear translocation of TFEB,TFEB [2],significantly increased
